Measured values from patent US20080308744A1 (Beth Israel Deaconess Medical Center, priority 2003, published 2008).

Assays:
[1] = Fluorescence spectrometry: relative fluorescent yield of 800 nm contrast agents; format: physicochemical
Protocol: The performance of these agents in rat and pig model systems of SLN mapping for the skin, gastrointestinal tract and lung were also quantitated.
All of the samples were diluted with PBS, pH7.8, or with 100% FBS according to absorbance at λmax using 1-cm path length quartz spectrometer cell, and excited at 770 nm. Fluorescence was measured by calculating the area under the curve of the intensity from 785 nm to 950 nm subtracting the fluorescence of control PBS, pH 7.8.

[2] = Quantum yield measurements; format: physicochemical; conditions: compared to QD
[3] = in DMSO; cited from earlier work
[4] = Behaviour of the free dye in blood (description); conditions: small molecule form

relative per molecule fluorescent yield to QDs ([1]; in 100% fetal bovine serum)	relative per molecule fluorescent yield to QDs ([1]; in phosphate-buffered saline)	quantum yield ([2]; in FBS)	quantum yield ([2]; in PBS)	in vivo early half-life	solubility in blood [4]	SMILES	quantum yield (control) [3] [%]
1.0	0.4	rather higher	same as that of QD			CC1(C)C(/C=C/C2=C(Oc3ccc(S(=O)(=O)O)cc3)C(=C/C=C3/N(CCCCS(=O)(=O)O)c4ccc(S(=O)(=O)[O-])cc4C3(C)C)/CCC2)=[N+](CCCCCC(=O)O)c2ccc(S(=O)(=O)O)cc21 [800CW]	
0.4	0.1			shorter half-life	somewhat less soluble in blood	CC1(C)C(/C=C/C=C/C=C/C=C2\N(CCCCS(=O)(=O)O)c3ccc4ccccc4c3C2(C)C)=[N+](CCCCS(=O)(=O)[O-])c2ccc3ccccc3c21 [ICG, indocyanine green]	13
